Columns and labels:
Type in all cases: in vivo
Digitaria sanguinalis = test: greenhouse post-emergence treatment, DIGSA; details: Digitaria sanguinalis, 480 h, 20 DAT, DIGSA
Summary of the method: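 Pot trial in loamy sand with about 3.0% humus; plants sown in place or transplanted as seedlings a few days before treatment, kept at 10-25° C or 20-35° C by species, water as solvent. Damage scored 0 (none) to 100 (full destruction) over 2 to 4 weeks; combination expectation by Colby, E=X+Y−(X·Y/100).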

Ambrosia elatior = test: greenhouse post-emergence treatment, AMBEL; details: AMBEL, 20 DAT
Summary of the method: (§1)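 Foliar application to greenhouse-grown plants 3–15 cm tall in humus-containing loamy sand; response assessed on a 0–100 scale after 2–4 weeks, with Colby's E=X+Y−(X·Y/100) as the additive expectation.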

Poa annua = test: greenhouse post-emergence treatment, POAAN; details: Poa annua, 480 h, POAAN, bentazon solo 60 gai/ha, 20 DAT
Summary of the method: as §1

Galium aparine = test: greenhouse post-emergence treatment, GALAP; details: Galium aparine, 480 h, GALAP, 20 DAT
Summary of the method: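 Post-emergence greenhouse spray on 3–15 cm plants, sown direct or transplanted a few days before treatment. Scored visually on a 0–100 scale after 2 to 4 weeks; expected additive effect computed by Colby: E=X+Y−(X·Y/100).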

Echinocloa crus-galli = test: greenhouse pre-emergence treatment, ECHCG; details: 20 DAT
Source text: The culture containers used were plastic pots containing loamy sand with approximately 3.0% of humus as substrate. The seeds of the test plants were sown separately for each species.
For the pre-emergence treatment, the active compounds, suspended or emulsified in water, were applied directly after sowing by means of finely distributing nozzles. The containers were irrigated gently to promote germination and growth and subsequently covered with transparent plastic hoods until the plants had rooted. This cover caused uniform germination of the test plants unless this was adversely affected by the active compounds.
Depending on the species, the plants were kept at 10-25° C. and 20-35° C., respectively.
The test period extended over 2 to 4 weeks. During this time, the plants were tended and their response to the individual treatments was evaluated.
Evaluation was carried out using a scale from 0 to 100. 100 means no emergence of the plants, or complete destruction of at least the above-ground parts, and 0 means no damage or normal course of growth. A good herbicidal activity is given at values of at least 70, and very good herbicidal activity is given at values of at least 85.
The respective stated components A and B, and if appropriate, C were formulated as a 10% by weight strength emulsion concentrate and, with addition of the amount of solvent system, introduced into the spray liquor used for applying the active compound. In the examples, the solvent used was water.
In the examples below, using the method of S. R. Colby (1967) “Calculating synergistic and antagonistic responses of herbicide combinations”, Weeds 15, p. 22ff., the value E, which is expected if the activity of the individual active compounds is only additive, was calculated. E=X+Y−(X·Y/100) where X=effect in percent using herbicide A at an application rate a; • Y=effect in percent using herbicide B at application rate b; • E=expected effect (in %) of herbicide A+herbicide B at application rates a+b.

Helianthus annuus = test: greenhouse pre-emergence treatment, HELAN; details: Helianthus annuus, 480 h, HELAN, chlorotoluron solo 500 gai/ha, 20 DAT
Summary of the method: (§2)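 Pre-emergence spray of compounds, alone or as combinations formulated as 10% emulsion concentrate in water, directly after sowing in loamy sand (~3.0% humus); pots hooded until rooting, kept at 10-25° C or 20-35° C per species for 2 to 4 weeks. Damage scored 0-100 (100 = no emergence/complete destruction); Colby expected value E=X+Y−(X·Y/100).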

Brachiaria decumbens = test: greenhouse pre-emergence treatment, BRADC; details: Urochloa decumbens, 480 h, BRADC, chlorotoluron solo 500 gai/ha, 20 DAT
Summary of the method: as §2

Alopecurus myosuroides = test: greenhouse pre-emergence treatment, ALOMY; details: 20 DAT
Summary of the method: as §2

Molecule CC(C)N1C(=O)c2ccccc2NS1(=O)=O [bentazon] has an inhibition at 30 g/ha (Digitaria sanguinalis; 30 gai/ha (SL 480 g/l), Table X3, read-out: % activity, solo application) of 0%, an inhibition at 60 g/ha (Digitaria sanguinalis; 60 gai/ha (SL 480 g/l), Table X3, read-out: % activity, solo application) of 0% and a pest or weed control at 30 g/ha (Digitaria sanguinalis; bentazon solo 30 gai/ha) of 0%. The pest or weed control at 60 g/ha (Digitaria sanguinalis; bentazon solo 60 gai/ha) was 0%, the pest or weed control at 120 g/ha (Digitaria sanguinalis; bentazon solo 120 gai/ha) was 0% and the pest or weed control at 240 g/ha (Digitaria sanguinalis; bentazon solo 240 gai/ha) was 30%. For the same molecule, the “% activity” value (Ambrosia elatior; bentazon solo 30 gai/ha) was 60%, the “% activity” value (Ambrosia elatior; bentazon solo 60 gai/ha) was 60% and the pest or weed control at 60 g/ha (Poa annua) was 0%.
For Cc1ccc(NC(=O)N(C)C)cc1Cl [chlorotoluron], the pest or weed control at 250 g/ha (Galium aparine; chlorotoluron solo 250 gai/ha) was 65%, the pest or weed control at 500 g/ha (Galium aparine; chlorotoluron solo 500 gai/ha) was 70% and the “% activity” value (Echinocloa crus-galli; chlorotoluron solo 62.5 gai/ha) was 0%. The “% activity” value (Echinocloa crus-galli; chlorotoluron solo 125 gai/ha) was 0%, the “% activity” value (Echinocloa crus-galli; chlorotoluron solo 250 gai/ha) was 35% and the “% activity” value (Echinocloa crus-galli; chlorotoluron solo 500 gai/ha) was 25%. The plant injury at 500 g/ha (Helianthus annuus) was 10%, the pest or weed control at 500 g/ha (Brachiaria decumbens) was 0% and the “% activity” value (Alopecurus myosuroides; chlorotoluron solo 62.5 gai/ha) was 0%. For the same molecule, the “% activity” value (Alopecurus myosuroides; chlorotoluron solo 125 gai/ha) was 0% and the “% activity” value (Alopecurus myosuroides; chlorotoluron solo 250 gai/ha) was 0%.

Source: patent publication US10966426B2, “Herbicidal compositions comprising phenylpyrimidines” (BASF SE, priority 2016, dated 2021)
